Key:
[1] = rate of dissolution in H2O at 25° C.; type: physicochemical; conditions: for Rate of dissolution in H2O at 25° C.: time: time for the amount printed in the same cell (see E2); for Rate of dissolution in H2O at 25° C.: amount dissolved: within the time printed in the same cell (see E3)
[2] = moisture content (Karl Fischer analysis); type: physicochemical
Description: Karl-Fischer analysis also was performed on the stevioside compositions obtained hereinbelow to determine the water content using a Mettler Toledo DL39 Karl Fischer titrator. Approximately 11-56 mg of sample were dissolved in approximately 3.5-3.7 g of dry Hydranal-Coulmat AD. Approximately 0.9-1.0 g of the resulting solution was placed in the KF titration vessel containing Hydranal-Coulomat AD and mixed for 10 seconds to ensure dissolution. The sample was titrated by means of a generator electrode which produces iodine by electrochemical oxidation: 2 I^−→I2+2e. The experiments were repeated in triplicate to ensure reproducibility.

[3] = room temperature; from U.S. Pat. No. 4,082,858; cited from earlier work

Row | Compound | Rate of dissolution in H2O at 25° C.: time [1] | Rate of dissolution in H2O at 25° C.: amount dissolved [1] | Moisture content [2] | rate of dissolution as compared to the polymorph forms of stevioside ([1]; in words) | water solubility [3]
1 | C=C1C[C@@]23CC[C@H]4[C@@](C)(CCC[C@@]4(C)C(=O)O[C@@H]4O[C@H](CO)[C@@H](O)[C@H](O)[C@H]4O)[C@@H]2CC[C@]1(O[C@@H]1O[C@H](CO)[C@@H](O)[C@H](O)[C@H]1O[C@@H]1O[C@H](CO)[C@@H](O)[C@H](O)[C@H]1O)C3 [stevioside, Stevioside] | – | – | – | – | approximately 1.25 g/L
2 | C=C1C[C@@]23CC[C@H]4[C@@](C)(CCC[C@@]4(C)C(=O)O[C@@H]4O[C@H](CO)[C@@H](O)[C@H](O)[C@H]4O)[C@@H]2CC[C@]1(O[C@@H]1O[C@H](CO)[C@@H](O)[C@H](O)[C@H]1O[C@@H]1O[C@H](CO)[C@@H](O)[C@H](O)[C@H]1O)C3 [Form 1, stevioside] | 30 min | <0.075% in | >5% | – | –

Further lines, with some results ahead:

Row | Rate of dissolution in H2O at 25° C.: time [1] | Rate of dissolution in H2O at 25° C.: amount dissolved [1] | Moisture content [2] | rate of dissolution as compared to the polymorph forms of stevioside ([1]; in words) | Compound | water solubility [3]
3 | 2 min | <0.6% in | <3% | – | C=C1C[C@@]23CC[C@H]4[C@@](C)(CCC[C@@]4(C)C(=O)O[C@@H]4O[C@H](CO)[C@@H](O)[C@H](O)[C@H]4O)[C@@H]2CC[C@]1(O[C@@H]1O[C@H](CO)[C@@H](O)[C@H](O)[C@H]1O[C@@H]1O[C@H](CO)[C@@H](O)[C@H](O)[C@H]1O)C3 [Form 2 A, stevioside] | –
4 | <1.0 min | 40.0% in | ~3% | improved rate of dissolution | C=C1C[C@@]23CC[C@H]4[C@@](C)(CCC[C@@]4(C)C(=O)O[C@@H]4O[C@H](CO)[C@@H](O)[C@H](O)[C@H]4O)[C@@H]2CC[C@]1(O[C@@H]1O[C@H](CO)[C@@H](O)[C@H](O)[C@H]1O[C@@H]1O[C@H](CO)[C@@H](O)[C@H](O)[C@H]1O)C3 [Form 4, stevioside] | –
5 | <1.0 min | 10.0% in | <4% | – | C=C1C[C@@]23CC[C@H]4[C@@](C)(CCC[C@@]4(C)C(=O)O[C@@H]4O[C@H](CO)[C@@H](O)[C@H](O)[C@H]4O)[C@@H]2CC[C@]1(O[C@@H]1O[C@H](CO)[C@@H](O)[C@H](O)[C@H]1O[C@@H]1O[C@H](CO)[C@@H](O)[C@H](O)[C@H]1O)C3 [Form 2B, stevioside] | –

Source: patent publication US8030481B2, “Stevioside polymorphic and amorphous forms, methods for their formulation, and uses” (The Coca-Cola Company, priority 2007, dated 2011)
